ChEMBL document CHEMBL1143441, “New classes of Gram-positive selective antibacterials: inhibitors of MRSA and surrogates of the causative agents of anthrax and tuberculosis” (2008)
Values after ≈ are worked out from the molar mass of the structure shown.

How the values were obtained:
Format in all cases: functional
Staphylococcus aureus [1] = experiment: Antimicrobial activity against Staphylococcus aureus ATCC 29213 by NCCLS M7-A6 method
Bacillus cereus = experiment: Antimicrobial activity against Bacillus cereus by NCCLS M7-A6 method
[2] = tested on: Mycolicibacterium smegmatis; experiment: Antimicrobial activity against Mycobacterium smegmatis by NCCLS M7-A6 method
Escherichia coli = experiment: Antimicrobial activity against Escherichia coli by NCCLS M7-A6 method
Staphylococcus aureus [3] = experiment: Antimicrobial activity against methicillin-resistant Staphylococcus aureus MC1 by NCCLS M7-A6 method
[4] = tested on: Corynebacterium diphtheriae; experiment: Antimicrobial activity against Corynebacterium diphtheriae Tox by NCCLS M7-A6 method
Staphylococcus aureus [5] = experiment: Antimicrobial activity against Staphylococcus aureus ATCC 25923 by NCCLS M7-A6 method
Enterococcus faecium [6] = experiment: Antimicrobial activity against vancomycin-resistant Enterococcus faecium 1 by NCCLS M7-A6 method
Enterococcus faecium [7] = experiment: Antimicrobial activity against vancomycin-resistant Enterococcus faecium 14 by NCCLS M7-A6 method
Enterococcus faecalis = experiment: Antimicrobial activity against Enterococcus faecalis ATCC 29212 by NCCLS M7-A6 method
Priestia megaterium = experiment: Antimicrobial activity against Bacillus megaterium by NCCLS M7-A6 method
Streptococcus agalactiae = experiment: Antimicrobial activity against Streptococcus agalactiae by NCCLS M7-A6 method
Bacillus anthracis = experiment: Antimicrobial activity against Bacillus anthracis Sterne by NCCLS M7-A6 method
Bacillus subtilis = experiment: Antimicrobial activity against Bacillus subtilis by NCCLS M7-A6 method
Corynebacterium xerosis = experiment: Antimicrobial activity against Corynebacterium xerosis by NCCLS M7-A6 method
Listeria monocytogenes = experiment: Antimicrobial activity against Listeria monocytogenes by NCCLS M7-A6 method
Pseudomonas aeruginosa = experiment: Antimicrobial activity against Pseudomonas aeruginosa by NCCLS M7-A6 method
Streptococcus mitis = experiment: Antimicrobial activity against Streptococcus mitis by NCCLS M7-A6 method
Staphylococcus aureus [8] = experiment: Antimicrobial activity against methicillin-resistant Staphylococcus aureus MC2 by NCCLS M7-A6 method
[9] = tested on: Corynebacterium pseudodiphtheriticum; experiment: Antimicrobial activity against Corynebacterium pseudodiphtheriticum by NCCLS M7-A6 method
Streptococcus pyogenes = experiment: Antimicrobial activity against Streptococcus pyogenes by NCCLS M7-A6 method
Streptococcus pneumoniae = experiment: Antimicrobial activity against Streptococcus pneumoniae ATCC 49619 by NCCLS M7-A6 method

SMILES	MIC (Staphylococcus aureus [1]) [µg/mL]	MIC (Bacillus cereus) [µg/mL]	MIC [2] [µg/mL]	MIC (Escherichia coli) [µg/mL]	MIC (Staphylococcus aureus [3]) [µg/mL]	further results
COc1cc(/C=C/c2cccs2)cc(OC)c1	> 512	> 512	> 512	> 512	> 512	–
COc1cc(O)cc(/C=C/Oc2ccccc2C)c1	16 (≈ 62.4 µM)	64 (≈ 250 µM)	> 128	> 512	32 (≈ 125 µM)	–
COc1cc(O)cc(/C=C/c2ccsc2)c1	32 (≈ 138 µM)	32 (≈ 138 µM)	64 (≈ 276 µM)	> 512	32 (≈ 138 µM)	–
COc1cc(/C=C/Oc2ccccc2)cc(OC)c1	> 512	> 512	> 512	> 512	> 512	–
COc1cc(/C=C/Oc2cccc(C)c2)cc(OC)c1	> 512	> 512	> 512	> 512	> 512	–
COc1cc(/C=C/Oc2ccc(C)cc2)cc(OC)c1	> 512	> 512	> 512	> 512	> 512	–
COc1cc(/C=C/Oc2cccc(OC)c2)cc(OC)c1	> 512	> 512	> 512	> 512	> 512	–
COc1cc(O)cc(O/C=C/c2ccccc2)c1	32 (≈ 132 µM)	64 (≈ 264 µM)	128 (≈ 528 µM)	> 512	32 (≈ 132 µM)	–
COc1cc(OC)cc(O/C=C/c2ccccc2)c1	> 512	> 512	> 512	> 512	> 512	–
COc1cc(O)cc(/C=C/Oc2ccccc2)c1	32 (≈ 132 µM)	32 (≈ 132 µM)	128 (≈ 528 µM)	> 512	64 (≈ 264 µM)	–
COc1cc(O)cc(/C=C/Oc2ccc(C)cc2)c1	16 (≈ 62.4 µM)	64 (≈ 250 µM)	> 128	> 512	32 (≈ 125 µM)	–
COc1ccc(O/C=C/c2cc(O)cc(OC)c2)cc1	16 (≈ 58.8 µM)	64 (≈ 235 µM)	128 (≈ 470 µM)	> 512	64 (≈ 235 µM)	–
COc1cc(/C=C/Oc2ccccc2C)cc(OC)c1	> 512	> 512	> 512	> 512	> 512	–
COc1cc(O)cc(/C=C/Oc2cccc(C)c2)c1	16 (≈ 62.4 µM)	32 (≈ 125 µM)	64 (≈ 250 µM)	> 512	32 (≈ 125 µM)	–
COc1cc(O)cc(/C=C/Sc2ccccc2)c1	16 (≈ 61.9 µM)	16 (≈ 61.9 µM)	128 (≈ 495 µM)	> 512	32 (≈ 124 µM)	–
COc1cc(O)cc(/C=C/Oc2cccc(OC)c2)c1	16 (≈ 58.8 µM)	64 (≈ 235 µM)	128 (≈ 470 µM)	> 512	64 (≈ 235 µM)	–
COc1cc(O)cc(/C=C/c2cccs2)c1	16 (≈ 68.9 µM)	32 (≈ 138 µM)	128 (≈ 551 µM)	> 512	32 (≈ 138 µM)	–
COc1cc(/C=C/Sc2ccccc2)cc(OC)c1	> 512	> 512	> 512	> 512	> 512	–
COc1ccc(O/C=C/c2cc(OC)cc(OC)c2)cc1	> 512	> 512	> 512	> 512	> 512	–
COc1cc(/C=C/c2ccccc2)cc(OC)c1 [3,5-O-DIMETHYLPINOSYLVIN]	> 512	> 512	> 512	> 512	> 512	–
COc1cc(O)cc(/C=C/c2ccccc2)c1 [PINOSYLVIN METHYL ETHER]	32 (≈ 141 µM)	16 (≈ 70.7 µM)	64 (≈ 283 µM)	> 512	32 (≈ 141 µM)	MIC [4]: 32 µg/mL (≈ 141 µM); MIC (Staphylococcus aureus [5]): 32 µg/mL (≈ 141 µM); MIC (Enterococcus faecium [6]): 16 µg/mL (≈ 70.7 µM); MIC (Enterococcus faecium [7]): 16 µg/mL (≈ 70.7 µM); MIC (Enterococcus faecalis): 16 µg/mL (≈ 70.7 µM); MIC (Priestia megaterium): 64 µg/mL (≈ 283 µM); MIC (Streptococcus agalactiae): 32 µg/mL (≈ 141 µM); MIC (Bacillus anthracis): 8 µg/mL (≈ 35.4 µM); MIC (Bacillus subtilis): 16 µg/mL (≈ 70.7 µM); MIC (Corynebacterium xerosis): 16 µg/mL (≈ 70.7 µM); MIC (Listeria monocytogenes): 32 µg/mL (≈ 141 µM); MIC (Pseudomonas aeruginosa): > 128 µg/mL; MIC (Streptococcus mitis): 64 µg/mL (≈ 283 µM); MIC (Staphylococcus aureus [8]): 32 µg/mL (≈ 141 µM); MIC [9]: 16 µg/mL (≈ 70.7 µM); MIC (Streptococcus pyogenes): 16 µg/mL (≈ 70.7 µM); MIC (Streptococcus pneumoniae): 8 µg/mL (≈ 35.4 µM)
